Our source for the DC50 values is US20240360146A1, “BRUTON'S TYROSINE KINASE AND MUTANT DEGRADER, COMPOSITION AND APPLICATION THEREOF” (HANGZHOU HEALZEN THERAPEUTICS CO., LTD., priority 2021, published 2024).

Where only a bound is given, the exact number is not on record here.

The experiment concerns the target T1, BTK (Homo sapiens, UniProt Q06187).
T1 construct: endogenous in cells; host or cells: Mino cells
Description: BTK degradation activity test in Mino cells. It counts as cell-based. Conditions: 16 h incubation, Western blot or Elisa. How it is done:
Mino cell line cells were seeded at 500,000 to 1,000,000 cells/well in a 6-well plate. The compounds were diluted to different concentrations and added to the plate, and after 16 h of incubation, cells were harvested. After lysing the cells, the total protein concentration in each well was determined using the BCA method. The amount of BTK was determined using Western blot or Elisa method. The amount of undegraded BTK protein at each drug concentration was compared with the amount of BTK protein in the blank control group to calculate the degradation rate. The degradation curve was drawn based on the degradation rate at each concentration, and the half degradation concentration (DC50) was calculated by fitting.
On the technique in general: A western blot detects proteins with antibodies after separation by electrophoresis.

T1 sequence (Q06187 whole entry): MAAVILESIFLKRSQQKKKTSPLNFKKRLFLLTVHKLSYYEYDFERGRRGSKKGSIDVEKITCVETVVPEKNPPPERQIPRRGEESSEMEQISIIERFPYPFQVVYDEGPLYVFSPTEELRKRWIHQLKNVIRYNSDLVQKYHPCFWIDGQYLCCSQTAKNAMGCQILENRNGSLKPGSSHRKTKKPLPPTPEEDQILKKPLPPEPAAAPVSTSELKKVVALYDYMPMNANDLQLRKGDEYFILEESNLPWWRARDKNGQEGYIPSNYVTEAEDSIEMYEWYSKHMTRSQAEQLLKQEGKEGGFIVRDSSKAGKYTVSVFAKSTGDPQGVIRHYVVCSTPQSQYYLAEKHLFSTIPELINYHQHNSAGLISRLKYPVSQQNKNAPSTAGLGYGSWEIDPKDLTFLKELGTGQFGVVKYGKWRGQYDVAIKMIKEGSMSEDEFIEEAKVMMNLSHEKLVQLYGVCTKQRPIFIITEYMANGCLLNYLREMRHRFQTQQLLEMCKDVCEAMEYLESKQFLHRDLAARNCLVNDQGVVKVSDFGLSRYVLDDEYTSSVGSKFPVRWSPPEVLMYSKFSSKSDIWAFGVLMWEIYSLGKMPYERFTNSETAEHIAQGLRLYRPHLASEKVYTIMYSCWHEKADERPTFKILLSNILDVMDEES

A word on the DC50: it is the concentration at which degradation of the target reaches its halfway point. A higher DC50 goes with a less potent degrader. `NC(=O)c1ncc(N2CCCC(N3CCN(C4COC4)C3=O)C2)nc1Nc1ccc(N2CCN(C3CN(c4ccc5c(c4)C(=O)N(C4CCC(=O)NC4=O)C5=O)C3)CC2)cc1` (centres unmarked) [Compound 015, 3-((4-(4-(1-(2-(2,6-dioxopiperidin-3-yl)-1,3-dioxoisoindol-5-yl)azetidin-3-yl)piperazin-1-yl)phenyl)amino)-5-(3-(3-(oxetan-3-yl)-2-oxoimidazolin-1-yl)piperidin-1-yl) pyrazin-2-carboxamide] displayed a DC50 of under 1 nM.

In turn, `NC(=O)c1ncc(N2CCCC(N3CCN(C4COC4)C3=O)C2)nc1Nc1ccc(N2CCN(CC3CN(c4ccc5c(c4)C(=O)N(C4CCC(=O)NC4=O)C5=O)C3)CC2)cc1` (centres unmarked) [Compound 016, 3-((4-(4-((1-(2-(2,6-dioxopiperidin-3-yl)-1,3-dioxoisoindol-5-yl)azetidine-3-yl)methyl)piperazin-1-yl)phenyl)amino)-5-(3-(3-(oxetan-3-yl)-2-oxoimidazolin-1-yl)piperidin-1-yl)pyrazin-2-carboxamide] gave a DC50 of under 1 nM.

As to `NC(=O)c1ncc(N2CCCC(N3CCN(C4COC4)C3=O)C2)nc1Nc1ccc(N2CCC3(CC2)CCN(c2ccc4c(c2)C(=O)N(C2CCC(=O)NC2=O)C4=O)CC3)cc1` (centres unmarked) [Compound 017, 3-((4-(9-(2-(2,6-dioxopiperidin-3-yl)-1,3-dioxoisoindol-5-yl)-3,9-diazaspirocyclo[5.5]undec-3-yl)phenyl)amino)-5-(3-(3-(oxetan-3-yl)-2-oxoimidazolin-1-yl)piperidin-1-yl)pyrazin-2-carboxamide], the 50% degradation concentration (DC50) was under 1 nM.

`NC(=O)c1ncc(N2CCCC(N3CCN(C4COC4)C3=O)C2)nc1Nc1ccc(N2CC3(C2)CN(c2ccc4c(c2)C(=O)N(C2CCC(=O)NC2=O)C4=O)C3)cc1` (centres unmarked) [Compound 018, 3-((4-(6-(2-(2,6-dioxopiperidin-3-yl)-1,3-dioxoisoindol-5-yl)-2,6-diazaspirocyclo[3.3]heptan-2-yl)phenyl)amino)-5-(3-(3-(oxetan-3-yl)-2-oxoimidazolin-1-yl)piperidin-1-yl)pyrazin-2-carboxamide]: the DC50 was under 1 nM.

Compound `NC(=O)c1ncc(N2CCCC(N3CCN(C4COC4)C3=O)C2)nc1Nc1ccc(N2CCC3(CC2)CC(N2CCN(c4ccc5c(c4)C(=O)N(C4CCC(=O)NC4=O)C5=O)CC2)C3)cc1` (centres unmarked) [Compound 019] showed a DC50 of over 1 nM.

Compound `CC1(c2ccc(Nc3nc(N4CCCC(N5CCN(C6CCCC6)C5=O)C4)cnc3C(N)=O)cc2)CCN(C2CN(c3cccc4c3C(=O)N(C3CCC(=O)NC3=O)C4=O)C2)CC1` (centres unmarked) [Compound 020, 5-(3-(3-cyclopentyl-2-oxoimidazolin-1-yl)piperidin-1-yl)-3-((4-(1-(1-(2-(2,6-dioxopiperidin-3-yl)-1,3-dioxoisoindol-4-yl)azetidin-3-yl)-4-methylpiperidin-4-yl)phenyl)amino)pyrazin-2-carboxamide] gave a DC50 of under 1 nM.

Consider `CC1(c2ccc(Nc3nc(N4CCCC(N5CCN(C6CCCC6)C5=O)C4)cnc3C(N)=O)cc2)CCN(C2CN(c3ccc(NC4CCC(=O)NC4=O)cn3)C2)CC1` (centres unmarked) [Compound 021], for which the DC50 was under 1 nM.

With `Cn1c(=O)n(C2CCC(=O)NC2=O)c2cccc(N3CC(N4CCC(C)(c5ccc(Nc6nc(N7CCCC(N8CCN(C9CCCC9)C8=O)C7)cnc6C(N)=O)cc5)CC4)C3)c21` (centres unmarked) [Compound 022], the DC50 was under 1 nM.

Compound `CC1(c2ccc(Nc3nc(N4CCCC(N5CCN(C6CCCC6)C5=O)C4)cnc3C(N)=O)cc2)CCN(C2CN(c3ccc4c(=O)n(C5CCC(=O)NC5=O)ccc4c3)C2)CC1` (centres unmarked) [Compound 023, 5-(3-(3-cyclopentyl-2-oxoimidazolin-1-yl)piperidin-1-yl)-3-((4-(1-(1-(2-(2,6-dioxopiperidin-3-yl)-1-oxo-1,2-dihydroisoquinolin-6-yl)azetidin-3-yl)-4-methylpiperidin-4-yl)phenyl)amino)pyrazin-2-carboxamide] came in with a DC50 of over 1 nM.

In turn, `Cn1c(=O)n(C2CCCN(c3cnc(C(N)=O)c(Nc4ccc(C5(C)CCN(C6CN(c7ccc8c(c7)C(=O)N(C7CCC(=O)NC7=O)C8=O)C6)CC5)cc4)n3)C2)c2ccccc21` (centres unmarked) [Compound 025, 3-((4-(1-(1-(2-(2,6-dioxopiperidin-3-yl)-1,3-dioxoisoindol-5-yl)azetidin-3-yl)-4-methylpiperidin-4-yl)phenyl)amino)-5-(3-(3-methyl-2-oxo-2,3-dihydro-1H-benzo[d]imidazol-1-yl)piperidin-1-yl)pyrazin-2-carboxamide] displayed a DC50 of under 1 nM.

`CC1(c2ccc(Nc3nc(N4CCCC(n5cc6ccccn6c5=O)C4)cnc3C(N)=O)cc2)CCN(C2CN(c3ccc4c(c3)C(=O)N(C3CCC(=O)NC3=O)C4=O)C2)CC1` (centres unmarked) [Compound 026, 3-((4-(1-(1-(2-(2,6-dioxopiperidin-3-yl)-1,3-dioxoisoindolin-5-yl)azetidin-3-yl)-4-methylpiperidin-4-yl)phenyl)amino)-5-(3-(3-oxoimidazo[1,5-a]pyridin-2(3H)-yl)piperidin-1-yl)pyrazin-2-carboxamide] came in with a DC50 of over 1 nM.

Turning to `NC(=O)c1ncc(N2CCCC(N3CCN(C4CCCC4)C3=O)C2)nc1Nc1ccc(C2CCN(C3CN(c4ccc5c(c4)C(=O)N(C4CCC(=O)NC4=O)C5=O)C3)CC2)cc1` (centres unmarked) [Compound 027, 5-(3-(3-cyclopentyl-2-oxyimidazolin-1-yl)piperidin-1-yl)-3-((4-(1-(1-(2-(2,6-dioxopiperidin-3-yl)-1,3-dioxoisoindol-5-yl)azetidin-3-yl)piperidin-4-yl)phenyl)amino) pyrazin-2-carboxamide], the DC50 is over 1 nM.

Compound `NC(=O)c1ncc(N2CCCC(N3CCN(C4CCCC4)C3=O)C2)nc1Nc1ccc(C(=O)C2CCN(CC3CCN(c4ccc5c(c4)C(=O)N(C4CCC(=O)NC4=O)C5=O)CC3)CC2)cc1` (centres unmarked) [Compound 028, 5-(3-(3-cyclopentyl-2-oxoimidazolin-1-yl)piperidin-1-yl)-3-((4-(1-((1-(2-(2,6-dioxopiperidin-3-yl)-1,3-dioxoisoindolin-5-yl)piperidin-4-yl)methyl)piperidin-4-formyl)phenyl)amino)pyrazin-2-carboxamide] yielded a DC50 of over 1 nM.

`NC(=O)c1ncc(N2CCCC(N3CCN(C4CCCC4)C3=O)C2)nc1Nc1ccc(N2CCC(C#CCN3CCN(c4ccc5c(c4)C(=O)N(C4CCC(=O)NC4=O)C5=O)CC3)CC2)cc1` (centres unmarked) [Compound 029, 5-(3-(3-cyclopentyl-2-oxoimidazolin-1-yl)piperidin-1-yl)-3-((4-(4-(3-(4-(2-(2,6-dioxopiperidin-3-yl)-1,3-dioxoisoindolin-5-yl)piperazin-1-yl)propan-1-yne-1-yl)piperidin-1-yl)phenyl)amino)pyrazin-2-carboxamide]: the DC50 is under 1 nM.

`NC(=O)c1ncc(N2CCCC(N3CCN(C4CCCC4)C3=O)C2)nc1Nc1ccc2c(c1)CCN(CC1CCN(c3ccc4c(c3)C(=O)N(C3CCC(=O)NC3=O)C4=O)CC1)C2` (centres unmarked) [Compound 030, 5-(3-(3-cyclopentyl-2-oxoimidazolin-1-yl)piperidin-1-yl)-3-((2-((1-(2-(2,6-dioxopiperidin-3-yl)-1,3-dioxoisoindol-5-yl)piperidin-4-yl)methyl)-1,2,3,4-tetrahydroisoquinolin-6-yl)amino)pyrazin-2-carboxamide] displayed a DC50 of under 1 nM.

On to `NC(=O)c1ncc(N2CCCC(N3CCN(C4COC4)C3=O)C2)nc1Nc1ccc2c(c1)CCN(CC1CCN(c3ccc4c(c3)C(=O)N(C3CCC(=O)NC3=O)C4=O)CC1)C2` (centres unmarked) [Compound 031, 3-((2-((1-(2-(2,6-dioxopiperidin-3-yl)-1,3-dioxoisoindol-5-yl)piperidin-4-yl)methyl)-1,2,3,4-tetrahydroisoquinolin-6-yl)amino)-5-(3-(3-(oxetan-3-yl)-2-oxoimidazolin-1-yl)piperidin-1-yl)pyrazin-2-carboxamide], for which the DC50 is under 1 nM.

`NC(=O)c1ncc(N2CCCC(N3CCN(C4COC4)C3=O)C2)nc1Nc1ccc2c(c1)CCN(CC1CN(c3ccc4c(c3)C(=O)N(C3CCC(=O)NC3=O)C4=O)C1)C2` (centres unmarked) [Compound 032, 3-((2-((1-(2-(2,6-dioxopiperidin-3-yl)-1,3-dioxoisoindol-5-yl)azetidine-3-yl)methyl)-1,2,3,4-tetrahydroisoquinolin-6-yl)amino)-5-(3-(3-(oxetan-3-yl)-2-oxyimidazolin-1-yl)piperidin-1-yl)pyrazin-2-carboxamide] came in with a DC50 of under 1 nM.

Regarding `NC(=O)c1ncc(N2CCCC(N3CCN(C4CCCC4)C3=O)C2)nc1Nc1ccc2c(c1)CCN(CC1CN(c3ccc4c(c3)C(=O)N(C3CCC(=O)NC3=O)C4=O)C1)C2` (centres unmarked) [Compound 033, 5-(3-(3-cyclopentyl-2-oxoimidazolin-1-yl)piperidin-1-yl)-3-((2-((1-(2-(2,6-dioxopiperidin-3-yl)-1,3-dioxoisoindol-5-yl)azetidin-3-yl)methyl)-1,2,3,4-tetrahydroisoquinolin-6-yl)amino)pyrazin-2-carboxamide], the DC50 was under 1 nM.

On to `CC1(c2ccc(Nc3nc(N4CCCC(N5CCN(C6CCCC6)C5=O)C4)cnc3C(N)=O)cc2)CCN(CC2CCN(c3ccc4c(c3)C(=O)N(C3CCC(=O)NC3=O)C4=O)C2)CC1` (centres unmarked) [Compound 034, 5-(3-(3-cyclopentyl-2-oxoimidazolin-1-yl)piperidin-1-yl)-3-((4-(1-((1-(2-(2,6-dioxopiperidin-3-yl)-1,3-dioxoisoindolin-5-yl)pyrrolidin-3-yl)methyl)-4-methylpiperidin-4-yl)phenyl)amino)pyrazin-2-carboxamide], for which the DC50 was under 1 nM.

As to `CN1CCN(C2CCCN(c3nnc(C(N)=O)c(Nc4ccc(C5(C)CCN(CC6CCN(c7ccc8c(c7)C(=O)N(C7CCC(=O)NC7=O)C8=O)C6)CC5)cc4)n3)C2)C1=O` (centres unmarked) [Compound 035, 5-((4-(1-((1-(2-(2,6-dioxopiperidin-3-yl)-1,3-dioxoisoindolin-5-yl)pyrrolidin-3-yl)methyl)-4-methylpiperidin-4-yl)phenyl)amino)-3-(3-(3-methyl-2-oxoimidazolin-1-yl)piperidin-1-yl)-1,2,4-triazin-6-carboxamide], the DC50 was under 1 nM.
